According to paper PMC10900215 (JACS Au, 2024):
Several values for one entry are separate records, joined by “and”; a condition that tells them apart may be missing. Equal values may be shown once.

How the values were obtained:
[1] = Cell viability assay (CellTiter-Glo) on MOLM-13; assay type: cell-based; conditions: human, MOLM-13 cells, average of two biological replicates; for viability at 72 h, […]: 2.5 µM
Method in brief: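 MOLM-13 AML cells grown in RPMI 1640 with 10% FBS at 37 °C, 5% CO2. Viability read as ATP luminescence by CellTiter-Glo after 10 min at room temperature, with background from cell-free medium wells subtracted.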

METTL3-14 [2] = molecular target: T1, METTL3-14 (Homo sapiens, UniProt Q86U44); assay: Cellular degradation assay (Western blot) in KASUMI-1; assay type: cell-based; set-up: METTL3–14 degradation up to 70% of the endogenous level; endogenous in cells; host or cells: MOLM-13, KASUMI-1, THP-1, NOMO-1; conditions: KASUMI-1, 2 μM, 24 h
Method: (§1) MOLM-13, NOMO-1, THP-1, Kasumi-1, PC3, and DU145 cell lines were obtained from DSMZ-German Collection of Microorganisms and Cell Cultures GmbH. Cells were cultured in RPMI 1640 medium (11875093, Thermo Fisher Scientific) containing 10% FBS (16140071, Thermo Fisher Scientific) and 1% penicillin-streptomycin (15140122, Thermo Fisher Scientific) in 5% CO2 at 37 °C in a humidified incubator, with maintained cell densities at 0.5–1 × 10^6 cells/mL. All cell lines were tested negative for mycoplasma contamination (PCR-based assay by Microsynth, Switzerland).
(§2) METTL3 (and METTL14) protein degradation was monitored by Western blot. Cells were treated with the indicated concentration of PROTACs or DMSO control (0.1% (v/v)) for 24h, 37 °C with 5% CO2. Samples were then collected and lysed with RIPA buffer with added protease inhibitors (11697498001, Roche). After SDS-PAGE, proteins were transferred to a nitrocellulose membrane, blocked (with 5% milk, 0.5% BSA in TBST buffer), and incubated overnight with primary antibodies. The following antibodies were used: GAPDH (no. 2118, Cell Signaling, 1:4000), β-actin (ab8226, Abcam, 1:2000), METTL3 (ab195352, Abcam, 1:1000), and METTL14 (ab220031, Abcam, 1:1000). Membranes were scanned using an LI-COR Odyssey DLx imager after incubation with appropriate secondary antibodies (antimouse IgG IRDye 680RD (926–68072, LI-COR, 1:10000) and goat anti-Rabbit IgG IRDye 800CW (926–32211, LI-COR, 1:10000)). Densitometry was performed in Image Studio Lite software and analyzed in GraphPad Prism 9.
Target sequence in this assay (Q86U44 2-580 limits assumed): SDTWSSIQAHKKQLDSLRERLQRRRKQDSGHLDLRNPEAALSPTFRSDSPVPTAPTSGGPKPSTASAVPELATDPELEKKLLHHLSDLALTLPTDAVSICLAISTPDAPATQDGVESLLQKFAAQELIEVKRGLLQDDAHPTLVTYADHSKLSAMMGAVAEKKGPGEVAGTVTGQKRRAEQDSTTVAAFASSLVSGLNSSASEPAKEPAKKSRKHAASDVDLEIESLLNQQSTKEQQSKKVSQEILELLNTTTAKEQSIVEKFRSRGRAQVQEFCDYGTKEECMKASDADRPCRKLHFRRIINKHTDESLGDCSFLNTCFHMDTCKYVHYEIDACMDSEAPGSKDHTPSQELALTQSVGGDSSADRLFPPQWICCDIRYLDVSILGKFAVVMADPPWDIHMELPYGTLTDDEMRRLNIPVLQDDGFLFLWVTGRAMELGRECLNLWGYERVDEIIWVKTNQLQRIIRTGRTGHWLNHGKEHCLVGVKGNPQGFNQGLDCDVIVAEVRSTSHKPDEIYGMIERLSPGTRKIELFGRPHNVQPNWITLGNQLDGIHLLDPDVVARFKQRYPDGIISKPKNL
Target sequence in this assay (Q9HCE5 whole entry partner): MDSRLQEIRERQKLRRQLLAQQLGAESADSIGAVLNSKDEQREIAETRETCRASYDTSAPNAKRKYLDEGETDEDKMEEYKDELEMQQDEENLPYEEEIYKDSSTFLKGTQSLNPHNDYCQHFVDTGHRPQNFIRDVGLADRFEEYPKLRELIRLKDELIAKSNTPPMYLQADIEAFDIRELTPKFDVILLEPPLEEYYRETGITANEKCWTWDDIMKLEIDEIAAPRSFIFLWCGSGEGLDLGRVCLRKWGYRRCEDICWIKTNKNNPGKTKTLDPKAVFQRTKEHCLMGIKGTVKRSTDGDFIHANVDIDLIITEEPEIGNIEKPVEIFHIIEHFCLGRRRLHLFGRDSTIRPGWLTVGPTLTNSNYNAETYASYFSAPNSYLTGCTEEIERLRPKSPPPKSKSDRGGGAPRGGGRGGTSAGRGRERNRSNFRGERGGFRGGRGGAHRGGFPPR

METTL3-14 [3] = molecular target: T1, METTL3-14; assay: biochemical; set-up: with the full-length complex, the recombinant complex construct pFastBacDual-StrepII-GFP-TEV-METTL3-His-TEV-METTL14 was expressed; StrepII (N); GFP (N); TEV site (N); made in house; host or cells: baculovirus/Sf9 insect cells; conditions: inhibition of catalytic activity of METTL3-14, binary FRET assay
Method in brief: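 Full-length human METTL3–METTL14 complex (StrepII-GFP-METTL3-His/METTL14) expressed in baculovirus/Sf9 cells and purified. Inhibition of METTL3 methyltransferase activity measured in a homogeneous time-resolved fluorescence (HTRF) enzyme assay; IC50 determined.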
Target sequence in this assay (Q86U44 whole entry): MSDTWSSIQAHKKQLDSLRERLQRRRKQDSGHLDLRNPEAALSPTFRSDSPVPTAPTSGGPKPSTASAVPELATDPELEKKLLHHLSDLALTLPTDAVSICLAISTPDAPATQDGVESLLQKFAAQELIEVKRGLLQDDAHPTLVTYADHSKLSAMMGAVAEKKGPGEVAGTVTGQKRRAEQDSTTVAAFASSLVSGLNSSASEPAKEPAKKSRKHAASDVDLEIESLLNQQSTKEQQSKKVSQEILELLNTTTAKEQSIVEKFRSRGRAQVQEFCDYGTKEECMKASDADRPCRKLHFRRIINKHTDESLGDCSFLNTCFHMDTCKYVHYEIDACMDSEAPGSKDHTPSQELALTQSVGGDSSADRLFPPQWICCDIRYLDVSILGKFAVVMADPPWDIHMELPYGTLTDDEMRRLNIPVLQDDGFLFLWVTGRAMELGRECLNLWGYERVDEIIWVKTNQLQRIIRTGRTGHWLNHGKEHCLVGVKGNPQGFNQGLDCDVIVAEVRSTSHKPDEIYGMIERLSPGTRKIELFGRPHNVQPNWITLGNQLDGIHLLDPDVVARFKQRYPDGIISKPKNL
Target sequence in this assay (Q9HCE5 whole entry, further chain): as the sequence (Q9HCE5 whole entry partner) above

METTL3-14 [4] = molecular target: T1, METTL3-14; assay: Cellular degradation assay (Western blot) in THP-1; assay type: cell-based; set-up: METTL3–14 degradation up to 70% of the endogenous level; endogenous in cells; host or cells: MOLM-13, KASUMI-1, THP-1, NOMO-1; conditions: THP-1, 2 μM, 24 h
Method: as §1, §2
Target sequence in this assay (Q86U44 2-580 limits assumed): as the sequence (Q86U44 2-580 limits assumed) above
Target sequence in this assay (Q9HCE5 whole entry partner): as the sequence (Q9HCE5 whole entry partner) above

METTL14 = assay: Cellular degradation assay (Western blot), METTL14 in MOLM-13; assay type: cell-based, human; conditions: MOLM-13, 24 h, 2 μM compound
Method in brief: (§3)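 Densitometric Western blot quantification of METTL3 and METTL14 protein gave the degradation read-out. Before lysis, cells had been incubated with PROTACs at the indicated concentrations for 24h at 37 °C, alongside a 0.1% DMSO vehicle.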

METTL3 = molecular target: T2, METTL3 (Homo sapiens, UniProt Q86U44); assay: Cellular degradation assay (Western blot), METTL3 in MOLM-13; assay type: cell-based; conditions: for MOLM-13 West. blot at 24h 2 μM comp conc. Degradation (%) of METTL3: MOLM-13, 24 h, 2 μM compound
T2 construct: METTL3–14 degradation up to 70% of the endogenous level; endogenous in cells; host or cells: MOLM-13, PC3, DU145
T2 sequence (Q86U44 2-580 limits assumed): as the sequence (Q86U44 2-580 limits assumed) above
T2 sequence (Q9HCE5 whole entry partner): as the sequence (Q9HCE5 whole entry partner) above
Method in brief: as §3

PC3 cell line = assay: Cell viability assay (CellTiter-Glo) on PC3; assay type: cell-based, human
Method: as §1
Cells were seeded in white clear-bottom 96-well plates at a density of 6–20 × 10^3 cells/well in 50 μL of the complete RPMI medium and treated with 50 μL of increasing concentrations of the indicated compounds dissolved in DMSO (final concentration of compounds 0.01–10 μM) or DMSO only as a negative control (0.01% (v/v)) and incubated for 72 h at 37 °C with 5% CO2. Cell viability was determined using a CellTiter-Glo luminescent cell viability assay (Promega) based on the detection of ATP according to the manufacturer’s instructions. 100 μL of the reagent was added to each well and incubated for 10 min at room temperature. The luminescence was recorded using a Tecan Infinite […] M1000 microplate reader from the top. Background luminescence value was obtained from wells containing the CellTiter-Glo reagent and medium without cells. The resulting data was analyzed in GraphPad Prism 9.

In the case of `CC1(C)CCN(Cc2cc(F)c(N3CC(=O)NC4(CCN(c5cc(NCc6cccc(CNC(=O)CCCNc7cccc8c7C(=O)N(C7CCC(=O)NC7=O)C8=O)c6)ncn5)CC4)C3)cc2F)CC1` (centres unmarked) [Compound 14], the viability at 72 h, 0.6 µM [1] is reported as 95.5%, the viability at 72 h, 1.25 µM [1] is reported as 97.5% and the viability at 72 h, […] [1] is reported as 103%. The viability at 72 h, 5 µM [1] was 102%, the viability at 72 h, 10 µM [1] was 94.1% and the “degradation of both METTL3 and METTL14 relative to MOLM-13” value (METTL3-14 [2]) was “higher degradation”. The IC50 (METTL3-14 [3]) was 11 ± 1 nM, the “degradation levels of METTL3 and METTL14” value (METTL3-14 [4]) was “comparable to those in MOLM-13” and the “MOLM-13 West. blot at 24h 2 μM comp conc. Degradation (%) of METTL14” value (“MOLM-13 West. blot … (%) of METTL14” for short) (METTL14) was 52% and 52 ± 6%. The “METTL3 reduction at highest effect in concentration dependence” value (METTL3; MOLM-13, 1 μM) was “around 50%” and the “MOLM-13 West. blot at 24h 2 μM comp conc. Degradation (%) of METTL3” value (“MOLM-13 West. blot … (%) of METTL3” below) (METTL3) was 52% and 52 ± 8%.

In the case of `CC1(C)CCN(Cc2cc(F)c(N3CC(=O)NC4(CCN(c5cc(NCc6cccc(CNC(=O)CCCCCCCCCCn7cc(CNc8cccc9c8C(=O)N(C8CCC(=O)NC8=O)C9=O)nn7)c6)ncn5)CC4)C3)cc2F)CC1` (centres unmarked) [Compound 20], the viability at 72 h, 0.6 µM [1] is reported as 101%, the viability at 72 h, 1.25 µM [1] is reported as 94.6% and the viability at 72 h, […] [1] is reported as 90.7%. For the same compound, the viability at 72 h, 5 µM [1] was 89.5%, the viability at 72 h, 10 µM [1] was 86.4% and the “degradation of both METTL3 and METTL14 relative to MOLM-13” value (METTL3-14 [2]) was “higher degradation”. The IC50 (METTL3-14 [3]) was 200 ± 30 nM, the “degradation levels of METTL3 and METTL14” value (METTL3-14 [4]) was “comparable to those in MOLM-13” and the “MOLM-13 West. blot … (%) of METTL14” value (METTL14) was 51% and 51 ± 10%. The “MOLM-13 West. blot … (%) of METTL3” value (METTL3) was 42% and 42 ± 13%.

With `CC1(C)CCN(Cc2cc(F)c(N3CC(=O)NC4(CCN(c5cc(NCC6CCN(C(=O)CCCNc7cccc8c7C(=O)N(C7CCC(=O)NC7=O)C8=O)CC6)ncn5)CC4)C3)cc2F)CC1` (centres unmarked) [Compound 22] the viability at 72 h, 0.6 µM [1] was 95.8%, the viability at 72 h, 1.25 µM [1] was 97.8% and the viability at 72 h, […] [1] was 96.2%. For the same compound, the viability at 72 h, 5 µM [1] was 88.4%, the viability at 72 h, 10 µM [1] was 77.4% and the antiproliferative effect (PC3 cell line) was “antiproliferative effect”. For the same compound, the “degradation of both METTL3 and METTL14 relative to MOLM-13” value (METTL3-14 [2]) was “higher degradation”, the IC50 (METTL3-14 [3]) was 11 ± 1 nM and the “degradation levels of METTL3 and METTL14” value (METTL3-14 [4]) was “comparable to those in MOLM-13”. The “MOLM-13 West. blot … (%) of METTL14” value (METTL14) was 55 ± 11% and the “MOLM-13 West. blot … (%) of METTL3” value (METTL3) was 46% and 46 ± 6%.

`CC1(C)CCN(Cc2cc(F)c(N3CC(=O)NC4(CCN(c5cc(NCC6CCN(C(=O)CCCCCNc7cccc8c7C(=O)N(C7CCC(=O)NC7=O)C8=O)CC6)ncn5)CC4)C3)cc2F)CC1` (centres unmarked) [Compound 24] gave a viability at 72 h, 0.6 µM [1] of 102%, a viability at 72 h, 1.25 µM [1] of 95.2% and a viability at 72 h, […] [1] of 109%. For the same compound, the viability at 72 h, 5 µM [1] was 104%, the viability at 72 h, 10 µM [1] was 91% and the antiproliferative effect (PC3 cell line) was “antiproliferative effect”. The “degradation of both METTL3 and METTL14 relative to MOLM-13” value (METTL3-14 [2]) was “higher degradation”, the IC50 (METTL3-14 [3]) was 58 ± 12 nM and the “degradation levels of METTL3 and METTL14” value (METTL3-14 [4]) was “comparable to those in MOLM-13”. For the same compound, the “MOLM-13 West. blot … (%) of METTL14” value (METTL14) was 50 ± 13% and the “MOLM-13 West. blot … (%) of METTL3” value (METTL3) was 36% and 36 ± 9%.

For `CC1(C)CCN(Cc2cc(F)c(N3CC(=O)NC4(CCN(c5cc(NCCN6CCN(C(=O)CCCCCNc7cccc8c7C(=O)N(C7CCC(=O)NC7=O)C8=O)CC6)ncn5)CC4)C3)cc2F)CC1` (centres unmarked) [Compound 30], the viability at 72 h, 0.6 µM [1] was 91.3%, the viability at 72 h, 1.25 µM [1] was 90.9% and the viability at 72 h, […] [1] was 91.1%. The viability at 72 h, 5 µM [1] was 82.5%, the viability at 72 h, 10 µM [1] was 78.4% and the antiproliferative effect (PC3 cell line) was “antiproliferative effect”. For the same compound, the “degradation of both METTL3 and METTL14 relative to MOLM-13” value (METTL3-14 [2]) was “higher degradation”, the “degradation of the POI” value (METTL3-14 [2]) was 70% and the IC50 (METTL3-14 [3]) was 27 ± 6 nM. For the same compound, the “degradation levels of METTL3 and METTL14” value (METTL3-14 [4]) was “comparable to those in MOLM-13”.
